According to PubChem BioAssay (NCI):
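How tested: cells in 96-well plates exposed to compound for 48 hours at five concentrations. Definition used: TGI = concentration required for complete inhibition of growth.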

Assays:
Assay in all cases: inhibition of tumour cell growth, NCI panel, 48 h
[1] = system: BT-549 breast
[2] = system: DU-145 prostate
[3] = system: HOP-92 NSCLC
[4] = system: MCF7 breast
[5] = system: MOLT-4 leukemia
[6] = system: NCI-H460 lung
[7] = system: NCI/ADR-RES ovarian
[8] = system: OVCAR-3 ovarian
[9] = system: OVCAR-8 ovarian
[10] = system: SK-MEL-5 melanoma
[11] = system: UACC-257 melanoma

Row | Structure (SMILES) | TGI [1] [µM] | TGI [2] [µM] | TGI [3] [µM] | TGI [4] [µM] | TGI [5] [µM] | TGI [6] [µM] | TGI [7] [µM] | TGI [8] [µM] | TGI [9] [µM] | TGI [10] [µM] | TGI [11] [µM]
1 | O=C(c1ccccc1)c1ccc2c(c1)nc1n2C(c2c(Cl)cccc2Cl)SC1 (configuration not stated) | > 100 | > 100 | > 100 | > 100 | > 100 | > 100 | > 100 | > 100 | > 100 | > 100 | > 100
2 | Nc1nc(Cl)cc(NCC2(O)CC(CO)C2)n1 (configuration not stated) | > 100 | > 100 | > 100 | > 100 | > 100 | > 100 | > 100 | > 100 | > 100 | > 100 | > 100
3 | O=C1c2ccccc2C2CNC1(O)c1ccccc12 (configuration not stated) | > 100 | > 100 | > 100 | > 100 | > 100 | > 100 | > 100 | > 100 | > 100 | > 100 | > 100
4 | OCC1OC(c2scc3c(=S)nc[nH]c23)C(O)C1O (configuration not stated) | > 100 | 19.5 | 6.92 | 27.3 | 48.4 | > 100 | > 66.3 | 8.33 | 39.6 | > 73.6 | > 46.4
5 | Clc1ccc(-c2ccc(-c3nnc(CCc4nnc(-c5ccc(-c6ccc(Cl)cc6)o5)o4)o3)o2)cc1 | > 100 | > 100 | > 64.1 | > 100 | > 45.3 | > 100 | > 100 | > 100 | > 100 | > 100 | > 100
6 | O=C1c2c(F)c(F)c(F)c(F)c2SC2=NCCN12 | 28 | 31 | 9.19 | 23.5 | 6.7 | 17.5 | 31.3 | 9.21 | 24.5 | 28.4 | 21.8
7 | Nc1nc2c(=O)c3ccccc3sc2s1 | > 100 | > 100 | > 100 | > 100 | > 100 | > 100 | 90.5 | > 100 | 50.7 | > 100 | > 100
8 | O=C1c2ccccc2C(=O)N1n1c(Cc2ccccc2)n[nH]c1=O | > 100 | > 100 | > 100 | > 100 | > 100 | > 100 | > 100 | > 100 | > 100 | > 100 | > 100
9 | CCCCNC1CCC2(SCCS2)c2[nH]c3ccccc3c21 (configuration not stated) | > 100 | > 93.8 | > 81.9 | 13.2 | 33.5 | > 100 | > 100 | 46.7 | 66.3 | 18 | 15.1
10 | O=C(O)c1ccccc1.[Ag] | 64.9 | 32.1 | 41.3 | 36.5 | > 21.7 | 30.1 | > 100 | 28.5 | > 72.7 | 19.5 | 10.2
11 | CCOC(=O)c1ccc(N=NN(C)C(=O)C(C)N)cc1 (configuration not stated) | > 100 | > 100 | > 100 | > 100 | > 100 | > 100 | > 100 | > 100 | > 100 | > 100 | > 100
12 | O=C(Cc1ccccc1)NCCc1ccc(O)c(O)c1 | > 100 | > 100 | > 100 | > 100 | > 100 | > 100 | > 100 | > 100 | > 100 | > 100 | > 100
13 | CN(C)CCNc1ccc(C(=O)NCCCN(C)CCCNC(=O)c2ccc(NCCN(C)C)c3c(=O)c4ccccc4[nH]c23)c2[nH]c3ccccc3c(=O)c12 | 0.971 | 2.48 | 0.616 | 0.489 | 2.78 | 1.43 | > 63.8 | 7.5 | 2.39 | 1.06 | 3.25
14 | C=CCNC(=S)Nc1sc2c(c1C(=O)OCC)CC(C)CC2 (configuration not stated) | > 100 | > 100 | > 100 | 45.4 | 80 | 47.7 | > 100 | 50.1 | > 100 | 30.7 | 43.5
15 | CCOc1cc2c(cc1O)/C(=N\N)C[C@@H]1[C@@H]2CC[C@]2(C)[C@@H](O)CC[C@@H]12 | 29.8 | > 66.8 | 49.9 | > 100 | > 100 | > 33.6 | > 28.2 | 12.4 | > 42.9 | 28 | > 50.9
16 | Clc1ccc2c(SCC3CO3)c3ccccc3nc2c1 (configuration not stated) | 18.7 | 2.95 | 5.08 | 3.19 | 4.3 | 20.9 | 7.24 | 3.27 | > 100 | 9.07 | 9.3
17 | COc1cc(/C=C2/SC(c3ccccc3)N(c3ccc(NC(C)=O)cc3)C2=O)cc(OC)c1OC (configuration not stated) | > 100 | > 100 | > 100 | > 100 | > 100 | > 100 | > 100 | > 100 | > 100 | > 100 | > 100
